Laboratory results from BindingDB's records for patent US20240226096 (Poseidon Innovation 1, 2024).

Molecular target: T1, Bromodomain-containing protein 4 [368-440] (Homo sapiens, UniProt O60885)
T1 construct: 368-440
Assay: BET BRD Assay
Protocol: 3x Complete Substrate plus Inhibitor Solution in Assay Medium (Opti-MEM I Reduced Serum Medium, no phenol red, and no serum) was prepared just before measuring BRET. This solution consisted of a 1:166 dilution of NanoBRET Nano-Glo Substrate plus a 1:500 dilution of Extracellular NanoLuc Inhibitor in Assay Medium. For a 96-well plate, 30 ul of NanoBRET Nano-Glo Substrate, 10 ul of Extracellular NanoLuc Inhibitor and 4,960 ul of Assay Medium were mixed to produce 5 ml of 3x Complete Substrate plus Inhibitor Solution, followed with gently mixing by inversion 5-10 times in a conical tube. (The final concentration of Extracellular NanoLuc Inhibitor in the 3x solution was 60 uM, for a working concentration of 20 uM. Use 3x Complete Substrate plus Inhibitor Solution within 2 hours. Discard any remaining solution). […] Donor emission wavelength (e.g., 450 nm) and acceptor emission wavelength (e.g., 610 nm) were measured by using the GloMax Discover System or other NanoBRET Assay-compatible luminometer (it is recommended measuring BRET within 10 minutes after adding NanoBRET Nano-Glo Substrate plus Extracellular NanoLuc Inhibitor Solution. However, BRET can be measured for up to 2 hours, but there will be some loss of luminescence signal). […]

Q: For `Cc1cc(-c2ccc(-n3ccn(C)c3=O)c(Cl)c2)c(O)c(-c2cccc(N3CCN(C(C)(C)C)CC3)c2)n1` [US20240226096, Example I-2], which IC50 is on record?
A: The IC50 was 0.0102 µM.
